How the values were obtained:
PC3-ML-Luc cells = experiment: Combination and survival study, PC3-ML-Luc model; type: in vivo; conditions: PC3-ML-Luc in athymic nude mice, day 14, IVMT-Rx-4 30 mg/kg and/or Docetaxel 5 mg/kg 3X a week for two weeks
Protocol: (§1) Both syngeneic (C57BL/6) and athymic nude mice were used for survival studies. Tumor cells (RM1-BM-Luc or PC3-ML-Luc) were injected intracardially in a cohort of 40 animals. […] In the combination groups, both regimens were administered 3X a week for two-weeks at the same dose as a single therapy. Animals were imaged periodically and maintained until euthanization was required.
(§2) Fig. 5. […] A and B) RM1-BM-Luc (A) or PC3-ML-Luc (B) cells were implanted I.C. in C57BL/6 and athymic nude mice, respectively. […] BLI images were used to detect bone metastases (the percentage incidence of bone metastases in animals was calculated at a single time point, day 14). Values are presented at the bottom panel of the respective group (red, number of animals positive for metastasis and black, total number of experimental animals). C and D) Animals were kept until mandated euthanasia based on IACUC guidelines, considered as disease associated death. The Kaplan–Meier survival curves were generated using GraphPad in both models as described in (A) and (B), respectively. E and F) Log-rank test was performed and values between different experimental groups are presented.

RM1-BM-Luc cells = experiment: Combination and survival study, RM1-BM-Luc syngeneic model; type: in vivo, C57BL/6 mice; conditions: RM1-BM-Luc in C57BL/6, day 14, IVMT-Rx-4 30 mg/kg and/or Docetaxel 5 mg/kg 3X a week for two weeks
Protocol: as §1, §2

[1] = Log D by shake flask (pH 7.4); type: physicochemical; conditions: pH 7.4, octanol/phosphate buffer
Protocol: Sodium Phosphate buffer pH 7.4 (10 mM) was used as the aqueous phase and octanol was used as the organic phase. […] The sealed plate was incubated at 25 °C with continuous agitation at 2000 rpm for 2 hrs. Samples were then separated by centrifugation, diluted 100-fold with a mixture of H20 and acetonitrile containing internal standard, and analyzed via LC-MS/MS. The Log D value was calculated using the following equation: […]

CYP3A4 = target: T1, CYP3A4 (Homo sapiens, UniProt P08684); experiment: Time dependent CYP inhibition (TDI); type: in vitro ADME; conditions: human liver microsomes, with or without NADPH
T1 construct: in the presence of human liver microsomes; from tissue; host or cells: human liver microsomes
T1 sequence (P08684 whole entry): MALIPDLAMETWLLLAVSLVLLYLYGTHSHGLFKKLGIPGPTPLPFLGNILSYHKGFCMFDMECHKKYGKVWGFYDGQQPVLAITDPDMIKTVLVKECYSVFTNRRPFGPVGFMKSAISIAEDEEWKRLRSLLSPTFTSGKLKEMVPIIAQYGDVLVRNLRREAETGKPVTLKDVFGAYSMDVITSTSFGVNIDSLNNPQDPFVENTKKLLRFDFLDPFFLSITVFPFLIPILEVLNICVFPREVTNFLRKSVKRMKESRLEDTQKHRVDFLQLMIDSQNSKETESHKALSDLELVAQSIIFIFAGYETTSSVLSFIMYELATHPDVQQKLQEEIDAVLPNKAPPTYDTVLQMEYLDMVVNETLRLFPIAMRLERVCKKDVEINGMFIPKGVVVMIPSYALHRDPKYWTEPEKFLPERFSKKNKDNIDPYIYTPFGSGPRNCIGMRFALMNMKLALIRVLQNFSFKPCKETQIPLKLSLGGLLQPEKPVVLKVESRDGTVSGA
Protocol: Then, the specific CYP3A4 substrate was added, and aliquots were collected at various time points. Samples were then diluted with ultra-pure water and analyzed by LC-MS/MS. Area ratio and remaining Activity (%) were calculated as above and IC50 values was calculated using Excel XLfit 5.3.1.3.

Caco-2 cell monolayer = experiment: Caco-2 bidirectional permeability; type: in vitro ADME
Protocol: To prepare the Caco-2 cell monolayer, 50 µL and 25 µL of cell culture medium (Dulbecco’s modified Eagle’s medium, DMEM) were added to each well of the inserts and reservoir, respectively, within a 96-well HTS Transwell plate (Corning, NY, USA). The plate was incubated at 37 °C and 5% CO2 for 1 hr. prior to cell seeding. Caco-2 cells were then diluted to 6.86 x 10^5 cells/mL using culture medium and 50 µL of cell suspension were seeded into the plate, and incubated at 37 °C, 5% CO2, and 95% relative humidity for 14-18 days. During this time, the cells were cultivated with media replacements occurring every other day. Cells were allowed to grow and differentiate and the integrity of the Caco-2 cell monolayer was evaluated by measurement of transepithelial electrical resistance (TEER) using a Millicell Epithelial Volt-Ohm measuring system (Millipore, USA).
Prior to the assay, the established monolayer was washed twice with pre-warmed HBSS and incubated at 37 °C for 30 minutes. A bidirectional permeability assay was performed simultaneously using two different plates as described previously (Supplementary Reference: Cui Y, Desevaux C, Truebenbach I, Sieger P, Klinder K, Long A, Sauer A. A Bidirectional Permeability Assay for beyond Rule of 5 Compounds. Pharmaceutics. 2021 Jul 27;13(8):1146. doi: 10.3390/pharmaceutics13081146. PMID: 34452112; PMCID: PMC8400635.): one assessed permeability from the apical to the basolateral side, while the other assessed from the basolateral to the apical side. […] For apical to basolateral permeability, 108 µL of working solution was loaded into the apical compartment, whereas 308 µL of working solution was added to the basolateral compartment for basolateral to apical permeability. The samples collected from donor and receiver compartment were mixed with 72 µL transport buffer and 240 µL of acetonitrile containing internal standard (IS, 100 nM alprazolam, 200 nM Caffeine and 100 nM tolbutamide), centrifuged at 1000 rpm for 10 minutes. […] In doing so, the following equations were used: […]
Where, Papp is apparent permeability (cm/s x 10^-6), dQ/dt is the rate of drug transport (pmol/second), A is the surface area of the membrane (cm^2), and D0 is the initial donor concentration (nM; pmol/cm^3). (B-A) indicates basolateral to apical permeation, where (A-B) indicates apical to basolateral.

[2] = system: HS5, RWPE-1, C4–2B, PC3-ML, ARCaP-M and RM1-BM cells; experiment: Colony formation (clonal) assay; type: cell-based, human and murine; conditions: 50 μM, six repeated doses over a two-week period, tumor and non-tumor cells
Protocol: 200 cells/well were seeded in triplicate in 6-well plates. […] The colonies were fixed with ice-cold Methanol and stained with 0.5% crystal violet and counted.
Fig. 1. Primary characterization of IVMT-Rx-4. A) Chemical structure (upper panel) and synthesis scheme (lower panel). […] All proteins were extracted, and Western blotting was performed immediately after heating. Quantifications were obtained in the absence (control) or presence of IVMT-Rx-4 and values are presented as percentage of RT (room temperature) normalized for the experimental groups (control, IVMT-Rx-4). SOD (Superoxide dismutase) was used as an endogenous control. […] Colonies were stained with crystal violet and counted (n = 3 ± SD; ns: non-significant). […] Invaded cells were stained with crystal violet. Top panel: representative photograph of invaded cells under different experimental settings. Bottom panel: graphical representation of number of invaded cells/field for different cell lines (n = 3 ± SD; * p < 0.05).

PXR = target: T2, PXR (Homo sapiens, UniProt O75469); experiment: PXR assay using DPX2 cells; type: cell-based
T2 construct: expressed in transfected cells; host or cells: DPX2 cells
T2 sequence (O75469 1-434): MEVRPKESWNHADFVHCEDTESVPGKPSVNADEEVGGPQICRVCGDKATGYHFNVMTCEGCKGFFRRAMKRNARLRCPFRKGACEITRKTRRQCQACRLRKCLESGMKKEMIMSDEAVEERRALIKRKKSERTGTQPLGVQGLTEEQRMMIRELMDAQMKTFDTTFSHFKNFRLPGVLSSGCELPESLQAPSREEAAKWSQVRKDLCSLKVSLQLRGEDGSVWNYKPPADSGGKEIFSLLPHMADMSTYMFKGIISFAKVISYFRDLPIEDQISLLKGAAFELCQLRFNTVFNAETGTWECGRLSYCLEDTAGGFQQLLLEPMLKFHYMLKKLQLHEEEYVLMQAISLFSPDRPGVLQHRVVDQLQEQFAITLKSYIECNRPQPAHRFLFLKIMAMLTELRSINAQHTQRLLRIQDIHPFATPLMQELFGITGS
Protocol: DPX2 cells were initially cultured in T-75 flasks and maintained at 37°C in a humidified incubator with 5% CO2 and 95% relative humidity. Cells were allowed to reach 70-80% confluence prior to subculture. Next, cells were transferred to a culture plate and incubated for an additional 24 hours to allow for attachment and recovery prior to treatment. […] Cell viability and luciferase activity were measured using the CellTiter-Fluor™ Cell Viability Assay and One-GloTM Luciferase Assay System, respectively. Luciferase activity was normalized to viable number and fold activation of PXR was calculated using the following equation: […]

[3] = Stability in liver microsomes with NADPH and UDPGA; type: in vitro ADME; conditions: all species (human, monkey, dog, rat, mouse), NADPH and UDPGA added
Protocol: Test samples were incubated at 37 °C, and Verapamil was used as a positive control. Samples were drawn from the incubation solution at different timepoints, centrifuged, then diluted with ultra-pure H20 and analyzed via LC-MS/MS. The natural logarithm of the remaining parent drug at each timepoint was plotted against incubation time, and the following equation was used to calculate the in vitro half-life:
in vitro t1/2 = -(0.693/k), where k is the rate constant.

[4] = Thermodynamic solubility in PBS, pH 7.4; type: physicochemical
[5] = system: Salmonella typhimurium TA98 & TA100; experiment: Mini-Ames assay; type: cell-based
Protocol: The mini-AMES assay was performed in Pharmaron, Inc. following the standard protocol as developed by the in-house scientist. […] The assay was conducted in the presence or absence of the S9 mix along with concurrent negative/solvent control and positive controls.

CC(=O)O[C@@]12CO[C@@H]1C[C@H](O)[C@@]1(C)C(=O)[C@H](O)C3=C(C)[C@@H](OC(=O)[C@H](O)[C@@H](NC(=O)OC(C)(C)C)c4ccccc4)C[C@@](O)([C@@H](OC(=O)c4ccccc4)[C@H]21)C3(C)C [Docetaxel, reference compound]
bone metastases, Incident/Total number tested (PC3-ML-Luc cells): 3/8 | bone metastases, Incident/Total number tested (RM1-BM-Luc cells): 5/8

Cc1cc(NC(=O)c2nc3nc4c(c(=O)n3[nH]2)CCC4)c(C)cc1NC(=O)CCc1nnc(-c2ccccc2)o1 [PDZ1i, reference compound]
Log D by shake flask (pH 7.4) [1]: 0.5 | Time-dependent inhibition (TDI), CYP3A4 (CYP3A4): No TDI | Caco-2 Efflux ratio (Caco-2 cell monolayer; B-A/A-B): 300 | Caco-2 Bidirectional A-B (Caco-2 cell monolayer; apical to basolateral, 10 µM): 0.04 ×10⁻⁶ cm/s | Caco-2 Bidirectional B-A (Caco-2 cell monolayer; basolateral to apical, 10 µM): 11.5 ×10⁻⁶ cm/s | cell proliferation (colony formation) [2]: did not inhibit cell proliferation | PXR assay (PXR): No induction | t½ in liver microsomes [3]: Minimal degradation: > 4 hr t½ in all species | Thermodynamic solubility in PBS, pH 7.4 [4]: 10 mg/ML | Mini-Ames Assay (2-strain option: TA98 & TA100) [5]: Negative
